Measured values as given in paper PMC10799935, “Discovery of a peripheral 5HT2A antagonist as a clinical candidate for metabolic dysfunction-associated steatohepatitis” (Nature Communications, 2024).
“And” between values parts separate entries of the source, which are not always exact repeats. Equal values may be shown once.

Assays:
5HT6 (h) = biological target: T1, 5HT6 (h) (Homo sapiens, UniProt P50406); test: 5HT subtype antagonism assay (Eurofins Cerep): 5HT6; type: cell-based; conditions: concentration not given
T1 construct: host or cells: CHO cells
T1 sequence (P50406 whole entry): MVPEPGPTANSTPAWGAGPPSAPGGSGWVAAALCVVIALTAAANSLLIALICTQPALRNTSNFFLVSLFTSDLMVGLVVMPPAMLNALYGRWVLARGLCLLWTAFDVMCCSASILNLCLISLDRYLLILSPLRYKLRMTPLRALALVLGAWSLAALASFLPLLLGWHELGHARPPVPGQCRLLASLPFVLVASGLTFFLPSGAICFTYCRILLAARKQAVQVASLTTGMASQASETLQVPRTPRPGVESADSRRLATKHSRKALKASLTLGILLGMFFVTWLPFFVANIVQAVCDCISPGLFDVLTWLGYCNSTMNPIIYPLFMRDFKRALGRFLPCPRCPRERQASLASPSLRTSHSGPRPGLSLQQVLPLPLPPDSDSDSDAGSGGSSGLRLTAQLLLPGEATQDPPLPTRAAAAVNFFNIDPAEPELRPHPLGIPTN

HFD-fed C57BL/6J mice = test: DIO mice: intraperitoneal glucose tolerance test (IPGTT); type: in vivo, mouse; set-up: Mean Diff. (Vehicle vs. 11c), GTT blood glucose / Mean 2 (11c group), GTT blood glucose: unit not given here; conditions: for Mean Diff. (Vehicle vs. 11c), GTT blood glucose: Dunnett's multiple comparisons test; for Significant? (Vehicle vs. 11c), GTT blood glucose: Dunnett's test, alpha 0.05; for Mean 2 (11c group), GTT blood glucose: test details, mixed-effects model
Method: For the glucose tolerance test, overnight fasted mice were intraperitoneally injected with 2 g/kg D-glucose (Sigma-Aldrich). Glucose concentrations were measured using a Gluco DR. TOP glucometer (Allmedicus). The AUC (area under the curve) during the GTT was calculated using GraphPad Prism 8.0 software (La Jolla, CA, USA) by the trapezoidal method.

Cc1nc2n(c(=O)c1CCN1CCC(=C3c4ccc(Cl)cc4CCc4cccnc43)CC1)CCCC2O (stereo not drawn) [Compound 11c]
Selectivity 6: % inhibition (5HT6 (h)): 7% | Mean Diff. (Vehicle vs. 11c), GTT blood glucose (HFD-fed C57BL/6J mice; 5mpk, 0 min): 17.89 | Significant? (Vehicle vs. 11c), GTT blood glucose (HFD-fed C57BL/6J mice; 5mpk, 0 min): No | Mean 2 (11c group), GTT blood glucose (HFD-fed C57BL/6J mice; 5mpk, 0 min): 206.4 | Mean Diff. (Vehicle vs. 11c), GTT blood glucose (HFD-fed C57BL/6J mice; 5mpk, 15 min): -1.429 | Significant? (Vehicle vs. 11c), GTT blood glucose (HFD-fed C57BL/6J mice; 5mpk, 15 min): No | Mean 2 (11c group), GTT blood glucose (HFD-fed C57BL/6J mice; 5mpk, 15 min): 542.4 | Mean Diff. (Vehicle vs. 11c), GTT blood glucose (HFD-fed C57BL/6J mice; 5mpk, 30 min): 41.17 | Significant? (Vehicle vs. 11c), GTT blood glucose (HFD-fed C57BL/6J mice; 5mpk, 30 min): No | Mean 2 (11c group), GTT blood glucose (HFD-fed C57BL/6J mice; 5mpk, 30 min): 575 | Mean Diff. (Vehicle vs. 11c), GTT blood glucose (HFD-fed C57BL/6J mice; 5mpk, 60 min): 150 | Significant? (Vehicle vs. 11c), GTT blood glucose (HFD-fed C57BL/6J mice; 5mpk, 60 min): Yes | Mean 2 (11c group), GTT blood glucose (HFD-fed C57BL/6J mice; 5mpk, 60 min): 473.2 | Mean Diff. (Vehicle vs. 11c), GTT blood glucose (HFD-fed C57BL/6J mice; 5mpk, 90 min): 176.5 | Significant? (Vehicle vs. 11c), GTT blood glucose (HFD-fed C57BL/6J mice; 5mpk, 90 min): Yes | Mean 2 (11c group), GTT blood glucose (HFD-fed C57BL/6J mice; 5mpk, 90 min): 359.1 | Mean Diff. (Vehicle vs. 11c), GTT blood glucose (HFD-fed C57BL/6J mice; 5mpk, 120 min): 168.6 | Significant? (Vehicle vs. 11c), GTT blood glucose (HFD-fed C57BL/6J mice; 5mpk, 120 min): Yes | Mean 2 (11c group), GTT blood glucose (HFD-fed C57BL/6J mice; 5mpk, 120 min): 270.4 | Glucose tolerance (HFD-fed C57BL/6J mice; 5 or 10 mpk, DIO mice): improved | Mean Diff. (Vehicle vs. 11c), GTT blood glucose (HFD-fed C57BL/6J mice; 10mpk, 0 min): 40.33 | Significant? (Vehicle vs. 11c), GTT blood glucose (HFD-fed C57BL/6J mice; 10mpk, 0 min): No | Mean 2 (11c group), GTT blood glucose (HFD-fed C57BL/6J mice; 10mpk, 0 min): 183.9 | Mean Diff. (Vehicle vs. 11c), GTT blood glucose (HFD-fed C57BL/6J mice; 10mpk, 15 min): 13.5 | Significant? (Vehicle vs. 11c), GTT blood glucose (HFD-fed C57BL/6J mice; 10mpk, 15 min): No | Mean 2 (11c group), GTT blood glucose (HFD-fed C57BL/6J mice; 10mpk, 15 min): 527.5 | Mean Diff. (Vehicle vs. 11c), GTT blood glucose (HFD-fed C57BL/6J mice; 10mpk, 30 min): 33.08 | Significant? (Vehicle vs. 11c), GTT blood glucose (HFD-fed C57BL/6J mice; 10mpk, 30 min): No | Mean Diff. (Vehicle vs. 11c), GTT blood glucose (HFD-fed C57BL/6J mice; 10mpk, 60 min): 136.4 | Significant? (Vehicle vs. 11c), GTT blood glucose (HFD-fed C57BL/6J mice; 10mpk, 60 min): No | Mean 2 (11c group), GTT blood glucose (HFD-fed C57BL/6J mice; 10mpk, 60 min): 486.8 | Mean Diff. (Vehicle vs. 11c), GTT blood glucose (HFD-fed C57BL/6J mice; 10mpk, 90 min): 180.6 | Significant? (Vehicle vs. 11c), GTT blood glucose (HFD-fed C57BL/6J mice; 10mpk, 90 min): Yes | Mean Diff. (Vehicle vs. 11c), GTT blood glucose (HFD-fed C57BL/6J mice; 10mpk, 120 min): 191.3 | Significant? (Vehicle vs. 11c), GTT blood glucose (HFD-fed C57BL/6J mice; 10mpk, 120 min): Yes | Mean 2 (11c group), GTT blood glucose (HFD-fed C57BL/6J mice; 10mpk, 120 min): 247.7 | Blood Glucose Level 0 min (HFD-fed C57BL/6J mice; GTT, DIO mice, PO, 5mpk, 0 min, group mean): 206.4 mg/dL | Blood Glucose Level 0 min (HFD-fed C57BL/6J mice; GTT, DIO mice, PO, 5mpk, 0 min, individual animals, 5 mg/kg): 241.0 mg/dL and 220.5 mg/dL and 182.0 mg/dL and 211.0 mg/dL and 157.0 mg/dL and 205.0 mg/dL and 228.0 mg/dL | Blood Glucose Level 15 min (HFD-fed C57BL/6J mice; GTT, DIO mice, PO, 5mpk, 15 min, group mean): 542.4 mg/dL
